The values that follow are results of earlier work, collected in patent publication US10918618B2, “Methods of reducing microbial contamination” (3M INNOVATIVE PROPERTIES COMPANY, priority 2005, dated 2021).

In the case of `[H]/N=C(\N/C(=N/[H])NCCCCCCNC(=N)NC(=N)Nc1ccc(Cl)cc1)Nc1ccc(Cl)cc1` [diacetate, chlorhexidine], the solubility limit is on record as 1.9 g/100 mL.
As for `N=C(NCCCCCCNC(=N)NC(=N)Nc1ccc(Cl)cc1)NC(=N)Nc1ccc(Cl)cc1.O=C(O)[C@H](O)[C@@H](O)[C@H](O)[C@H](O)CO.O=C(O)[C@H](O)[C@@H](O)[C@H](O)[C@H](O)CO` [digluconate salt, chlorhexidine digluconate], the solubility limit is on record as 20 g/100 mL.
